Here are results for six molecules from ChEMBL document CHEMBL1151489, “N-(quinuclidin-3-YL)-1,8,-naphthalimides with 5-HT3 receptor antagonist and 5-HT4 receptor agonist properties” (Bioorg Med Chem Lett, 1993).

For test [1], the target named is 5-hydroxytryptamine receptor 4 (Rattus norvegicus) (UniProt Q62758). Briefly: lntrinsic activity relative to 5-HT receptor. In kind it is functional.
In test [2] the target is 5-hydroxytryptamine receptor 4 (Rattus norvegicus, UniProt Q62758). In words: 5-hydroxytryptamine 4 receptor agonist activity in the rat esophageal muscularis mucosae. In kind it is functional.
The target of test [3] is Serotonin 3 (5-HT3) receptor (Rattus norvegicus) (UniProt P35563+Q9JJ16). Briefly: In vivo 5-hydroxytryptamine 3 receptor antagonist activity by antagonism of the von Bezold-Jarisch (B-J) reflex in anesthetized rats, (i.v.). In kind it is functional, organism-based.
Test [4] concerns the target T1, Serotonin 3 (5-HT3) receptor (Rattus norvegicus, UniProt P35563+Q9JJ16).
T1 sequence (P35563 whole entry): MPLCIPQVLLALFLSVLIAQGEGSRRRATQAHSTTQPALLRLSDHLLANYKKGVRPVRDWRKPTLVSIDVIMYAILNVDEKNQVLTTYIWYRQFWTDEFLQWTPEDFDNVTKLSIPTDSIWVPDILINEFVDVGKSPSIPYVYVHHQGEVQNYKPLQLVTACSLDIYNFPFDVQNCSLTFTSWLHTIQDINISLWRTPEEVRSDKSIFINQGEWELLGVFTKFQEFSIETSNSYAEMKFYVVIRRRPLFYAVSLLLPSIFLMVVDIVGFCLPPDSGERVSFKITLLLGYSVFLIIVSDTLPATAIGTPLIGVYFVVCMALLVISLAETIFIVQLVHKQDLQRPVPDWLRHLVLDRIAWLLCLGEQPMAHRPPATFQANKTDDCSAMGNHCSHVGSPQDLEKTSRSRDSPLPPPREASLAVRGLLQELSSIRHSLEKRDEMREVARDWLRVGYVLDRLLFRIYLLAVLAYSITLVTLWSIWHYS
T1 sequence (Q9JJ16 whole entry): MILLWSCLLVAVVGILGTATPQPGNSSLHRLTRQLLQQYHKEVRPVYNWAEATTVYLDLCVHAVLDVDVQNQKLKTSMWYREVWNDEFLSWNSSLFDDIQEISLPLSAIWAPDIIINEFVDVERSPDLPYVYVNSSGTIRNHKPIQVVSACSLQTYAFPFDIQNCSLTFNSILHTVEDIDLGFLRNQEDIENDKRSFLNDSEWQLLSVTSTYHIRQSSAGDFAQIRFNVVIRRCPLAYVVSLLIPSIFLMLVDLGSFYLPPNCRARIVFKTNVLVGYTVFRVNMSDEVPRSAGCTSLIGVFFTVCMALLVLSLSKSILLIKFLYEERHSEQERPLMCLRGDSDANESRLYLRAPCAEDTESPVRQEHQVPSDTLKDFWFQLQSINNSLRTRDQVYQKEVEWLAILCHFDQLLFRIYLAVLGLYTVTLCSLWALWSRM
In words: Binding affinity to 5-hydroxytryptamine 3 receptor was determined in rat cerebro cortical membranes using [3H]quipazine. In kind it is cell membranes.

5-hydroxytryptamine receptor 4 (Rattus norvegicus), sequence (Q62758 whole entry): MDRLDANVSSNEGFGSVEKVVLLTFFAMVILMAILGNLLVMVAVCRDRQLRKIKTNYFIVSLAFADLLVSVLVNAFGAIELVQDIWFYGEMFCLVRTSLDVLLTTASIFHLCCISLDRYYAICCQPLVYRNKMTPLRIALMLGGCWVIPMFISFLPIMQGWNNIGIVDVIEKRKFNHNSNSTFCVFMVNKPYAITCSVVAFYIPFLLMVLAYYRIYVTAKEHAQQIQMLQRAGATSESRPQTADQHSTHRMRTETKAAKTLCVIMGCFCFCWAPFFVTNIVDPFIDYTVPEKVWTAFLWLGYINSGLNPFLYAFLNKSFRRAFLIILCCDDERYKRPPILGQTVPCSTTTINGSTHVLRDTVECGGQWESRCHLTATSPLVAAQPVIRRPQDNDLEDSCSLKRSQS
5-hydroxytryptamine receptor 4, sequence (Q62758 whole entry): as above

Molecule `NCCc1c[nH]c2ccc(O)cc12` yielded an Activity in test [1] of 1.
The molecule `COc1cc(N)c(Cl)cc1C(=O)N[C@H]1CN2CCC1CC2` [(R)ZACOPRIDE] yielded an Activity in test [1] of 0.9. The molecule further gave an EC50 in test [2] of 0.501 µM.
In test [1], `Nc1c(Cl)cc2c3c(cccc13)C(=O)N([C@@H]1CN3CCC1CC3)C2=O` displayed an Activity of 0.8. Further, the EC50 in test [2] was 0.0126 µM. This molecule had an Inhibitory dose (ID50) in test [3] of 0.077 mg/kg. Affinity in test [4] was put at a Ki of 0.01 µM.
The like results for `CN1CCC(N2C(=O)c3cccc4c(N)c(Cl)cc(c34)C2=O)CC1` were, in that order, 0.9, 0.0316 µM, 0.288 mg/kg and 0.0398 µM.
In test [1], `COc1cc(N)c(Cl)cc1C(=O)N[C@@H]1CN2CCC1CC2` gave an Activity of 0.9. The same molecule had a concentration giving a half-maximal response (EC50) in test [2] of 0.0631 µM.
`Nc1c(Cl)cc2c3c(cccc13)C(=O)N([C@H]1CN3CCC1CC3)C2=O`: the EC50 in test [2] was > 1 µM. Besides, the Inhibitory dose (ID50) in test [3] amounted to 0.0045 mg/kg. This molecule gave a Ki in test [4] of 0.000794 µM.
